Results on 2 molecules are retold here after publication PMC9031226, “Preclinical Therapeutic Assessment of a New Chemotherapeutics [Dichloro(4,4’-Bis(2,2,3,3-Tetrafluoropropoxy) Methyl)-2,2’-Bipryridine) Platinum] in an Orthotopic Patient-Derived Xenograft Model of Triple-Negative Breast Cancers” (Pharmaceutics, 2022).

Molecules are shown by their SMILES.

Data set [1] has as its system SK-OV-3. Kind of data set: MTT cell viability assay on SK-OV-3. Format: cell-based, human. The following applies: for IC50: SK-OV-3, MTT assay, 48 h. The method, then: Human cancer cell lines, including MDA-MB-231, MCF-7, COLO205 and SK-OV-3, used in this study were purchased from American Type Culture Collection (ATCC, Manassas, VA, USA). All cell cultures were maintained in a 5% CO2-containing incubator at 37 °C. Triple-negative breast cancer cell line MDA-MB-231 and estrogen receptor-positive breast cancer cells MCF-7 were cultured in Dulbecco’s Modified Eagle Medium/Nutrient Mixture F-12 medium (DMEM/F12, Thermo Fisher Scientific Inc., Waltham, MA, USA) supplemented with 1% HyClone Penicillin-Streptomycin 100X solution (Cytiva, Marlborough, MA, USA) and 10% (v/v) fetal bovine serum (Thermo Fisher Scientific Inc., Waltham, MA, USA). COLO205 colon cancer cells and SK-OV-3 ovarian cancer cells were cultured in Roswell Park Memorial Institute (RPMI) 1640 medium (Thermo Fisher Scientific Inc., Waltham, MA, USA) containing the same supplements as described above.
Cell viability was evaluated using MTT assay. […] A viable cell count was determined by adding MTT reagent (3-(4,5-Dimethyl-2-thiazolyl)-2,5-diphenyl-2H-tetrazolium bromide (MTT; SERVA, Heidelberg, Germany) at a concentration of 5 mg/mL in PBS followed by measurement of the absorbance at 570 nm for each well detected by μQuant™ universal microplate spectrophotometer (BioTek, Winowski, VT, USA). The assessment procedures were followed under the manufacturer’s instructions. The final results were represented as mean values in the same experimental group detected by a microplate reader.
A general note: Tetrazolium dyes change colour on reduction, which living cells bring about.

Data set [2] concerns MDA-MB-231 cells. Kind of data set: Cell cycle analysis (PI staining, flow cytometry). The following applies: 24 h; for DNA content in sub G1: without exposure 8.71%; for DNA content in S phase: without exposure 14.75%. Format: cell-based, human. As for the experimental part:
The pellet was collected and fixed in 99% ice-cold ethanol and then stored in a freezer at −20 °C for further processing of staining. To label DNA, those fixed cells were rapidly washed to remove the residual fixing agent, followed by staining with DNA intercalating agent propidium iodide solution (PI) for 30 min in the dark. The PI working solution contains 0.5% Triton X-100, 15 μg propidium iodide (PI; BioVision Inc., Milpitas, CA, USA) and 10 μg RNase A (Thermo Fisher Scientific Inc., Waltham, MA, USA) in 1 mL PBS. The measurement and acquisition of DNA content were conducted using FACSVerse^TM Flow Cytometer (BD, Franklin Lakes, NJ, USA). Cell cycle distribution in four phases (subG1, G1, S, G2/M) was gated and analyzed in Kaluza Analysis Software (Beckman Coulter Inc., Indianapolis, IN, USA).

For data set [3], the system named is MDA-MB-231 cells. Kind of data set: Apoptosis detection (annexin V/PI, flow cytometry). Format: cell-based, human. The following applies: MDA-MB-231, 15 h. The method, then:
In total, 3 × 10^5 MDA-MB-231 cells were first plated and cultured in a 6-well plate for 24 h and then exposed to medium, TFBPC- or CDDP-containing medium, and incubated in the dark for another 15 h, followed by apoptotic assessment using FITC-annexin V (AV) and propidium iodide (PI) double staining cell solution (Thermo Fisher Scientific Inc., Waltham, MA, USA) for 30 min. To assess the AV-Phosphatidylserine (excitation/emission maxima of 490/525 nm) and PI-DNA (excitation/emission maxima of 535/617 nm) binding, fluorescence intensity was analyzed and recorded using flow cytometer. Scatters in a two-parameter dot plot were gated into four quadrants. Proportions in the lower right (LR) and upper right (UR) quadrants were represented as the early stage and late stage in apoptotic process.

The test system of data set [4] is MDA-MB-231. The data set can be described thus: Western blotting of apoptosis and autophagy markers. Format: cell-based, human. The following applies: MDA-MB-231, Western blotting. As for the experimental part:
Each sample containing 30 μg protein mixture was loaded into a well on SDS-PAGE gel and separated through electrophoresis, followed by protein determination using specific antibodies against PARP (1:1000, Cat. #9542; Cell Signaling Technology, Danvers, MA, USA), GAPDH (1:5000, Cat. GTX100118; GeneTex, Irvine, CA, USA), Bax (1:1000, Cat. ARG65612; Arigo, Glasgow, UK), Bcl-2 (1:1000, Cat. ARG55188; Arigo, Glasgow, UK) and LC3-I/II (1:1000, Cat. #12741; Cell Signaling Technology, Danvers, MA, USA). Primary antibodies were targeted by horseradish peroxidase (HRP) conjugated anti-mouse (1:5000, Cat. A9044, Sigma-Aldrich, Burlington, VT, USA) or anti-rabbit (1:5000, Cat. SI-A0545; Sigma-Aldrich, Burlington, VT, USA) secondary antibodies for visualizing immunoblots. Results were imaged by ChemiDoc system (Bio-Rad Laboratories, Hercules, CA, USA) and semi-quantification was conducted using Image Lab system (Bio-Rad Laboratories, Hercules, CA, USA).

The subject of data set [5] is MDA-MB-231 cells. Kind of data set: DNA fragmentation (agarose gel). Format: cell-based, human. As to conditions: MDA-MB-231, 24 h. As for the experimental part:
DNA samples suspended in DNA lysis buffer containing 1.0 mM Tris hydrochloride (pH 7.5), 10 mM EDTA (pH 8.0), 10 mM sodium chloride and 0.5% Triton X-100.

Data set [6] concerns calf thymus DNA (ct-DNA). The data set can be described thus: UV-Vis spectrum of DNA-drug complex. Format: binding. As to conditions: 25 ng/μL ct-DNA, 40-640 μM, 6 h, 37 °C. As for the experimental part: The binding of the platinum-based agent with calf thymus DNA (ct-DNA) was assessed using UV-visible spectroscopy. […] Absorption between the wavelengths of 220 nm and 500 nm was detected by measuring absorbance every 2 nm via Thermo Varioskan Flash microplate reader (Thermo Fisher Scientific Inc., Waltham, MA, USA). The maximal absorbance of DNA at 260 nm was marked to highlight the spectrum in pure DNA without chemical intercalation.

Data set [7] is described as follows: HE staining of major organs (CDX model). Format: in vivo, mice. As to conditions: xenograft model. An excerpt:
Formalin-fixed and paraffin-embedded 4 μm sections of tumor and organs from cell-bearing xenograft models were stained in hematoxylin and eosin to provide an overall morphology of tissues. Tumor sections were dewaxed with UltraClear™ (J.T.Baker, Phillipsburg, NJ, USA), rehydrated in a descending series of alcohol and water and had antigens unmasked in pH 6 or pH 9 Epitope Retrieval Solution (Leica Biosystems Inc., Wetzlar, Germany) in a microwave pressure cooker. […] VisUCyte HRP Polymer Antibody against rabbit IgG (VC003-025; R&D Systems, Minneapolis, MN, USA) and mouse IgG (VC001-025; R&D Systems, Minneapolis, MN, USA) were targeted to primary antibodies. Liquid DAB+ system from Agilent Technologies (Santa Clara, CA, USA) was applied as a chromogen for visualizing. Slides were mounted after hematoxylin counterstaining. All images were scanned using Motic EasyScan Pro 6 pathology slide scanner (Motic China Group Co., Ltd., Hong Kong, China).

Regarding `FC(F)C(F)(F)COCc1ccnc(-c2cc(COCC(F)(F)C(F)F)ccn2)c1.[Cl][Pt][Cl]` [TFBPC], the “reduction in cell viability” value in data set [1] (SK-OV-3, 0.625 μM) is on record as 29%; in data set [1] (SK-OV-3, 1.23 μM), 54%; in data set [1] (SK-OV-3, 2.5 μM), 78%. In data set [1], this molecule yielded an IC50 of 1.92 µM. Also, the “DNA content in sub G1” value in data set [2] (MDA-MB-231, 2.5 μM) turned out to be 14.8%; in data set [2] (MDA-MB-231, 5 μM), 23.14%; in data set [2] (MDA-MB-231, 10 μM), 27.15%. Moreover, the “induction of apoptosis (annexin V)” value in data set [3] was “caused cells to undergo an apoptotic fate”. Besides, the Bax/Bcl-2 ratio entry in data set [4] was “increase in Bax/Bcl-2 ratio”. For the same molecule, in data set [4], the “LC3 I conversion to LC3 II (autophagy marker)” value is recorded as “LC3 I conversion to LC3 II”. The “cleaved form of PARP” value in data set [4] was “formation of the cleaved form of PARP”. The DNA fragmentation entry in data set [5] is on record as “DNA fragmentation confirms TFBPC-induced apoptosis”. Also, the “change in UV-Vis absorption spectrum of ct-DNA at 260 nm” value in data set [6] is recorded as “hyperchromicity profile”. Further, the “pathophysiological changes in heart, kidneys, liver, lungs and spleen (HE staining)” value in data set [7] is “No obvious pathophysiological changes”.
The molecule `N.N.[Cl][Pt][Cl]` [CDDP, Cis-diamineplatinum(II) dichloride] had an IC50 in data set [1] of 41 µM. The “DNA content in S phase” value in data set [2] (MDA-MB-231, 2.5 μM) was 26.8%; in data set [2] (MDA-MB-231, 5 μM), 32.27%; in data set [2] (MDA-MB-231, 10 μM) it was 39.65%. In addition, the “induction of apoptosis (annexin V)” value in data set [3] is on record as “failed to induce MDA-MB-231 cells to undergo apoptosis”. Besides, in data set [4], the “LC3 I conversion to LC3 II (autophagy marker)” value was “could not induce apoptotic and autophagy signaling”. For the same molecule, the “cleaved form of PARP” value in data set [4] is “failed to induce the formation of the cleaved form of PARP”. In data set [5], the DNA fragmentation result was “no sign of cisplatin-induced PS expression or DNA fragmentation”. In data set [6], the “change in UV-Vis absorption spectrum of ct-DNA at 260 nm” value is “hypochromic profile”.

The term IC50 denotes the concentration that gives 50% inhibition. Higher therefore signals weaker potency.
